The test deals with T1, IDO1 (Homo sapiens, UniProt P14902).
T1 construct: endogenous in cells; host or cells: HeLa cells (ATCC), IFNgamma-induced
Briefly: IDO1 cell-based assay (HeLa cells, IFNgamma-induced, N-formylkynurenine/L-tryptophan by RFMS). To be noted: 10 ng/mL IFNgamma, 24 hours. Put shortly:
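N-formylkynurenine and tryptophan peak areas in media measured by RFMS (C18, isocratic, d-Trp standard), giving IC50 values by regression. Source: HeLa cells incubated 24 h with IFNgamma (10 ng/mL) plus test compound at 0.5% DMSO; parallel CellTiter-Glo viability read.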

Each structure is given as a SMILES string. pIC50: −log10 of the molar value. A value given as a limit tells only on which side of the number the result lay.

As a reminder, the pIC50 is the negative decadic logarithm of the IC50, by convention in mol/L. The low end stands for a large IC50, the high end for a small IC50.

T1 sequence (P14902 whole entry): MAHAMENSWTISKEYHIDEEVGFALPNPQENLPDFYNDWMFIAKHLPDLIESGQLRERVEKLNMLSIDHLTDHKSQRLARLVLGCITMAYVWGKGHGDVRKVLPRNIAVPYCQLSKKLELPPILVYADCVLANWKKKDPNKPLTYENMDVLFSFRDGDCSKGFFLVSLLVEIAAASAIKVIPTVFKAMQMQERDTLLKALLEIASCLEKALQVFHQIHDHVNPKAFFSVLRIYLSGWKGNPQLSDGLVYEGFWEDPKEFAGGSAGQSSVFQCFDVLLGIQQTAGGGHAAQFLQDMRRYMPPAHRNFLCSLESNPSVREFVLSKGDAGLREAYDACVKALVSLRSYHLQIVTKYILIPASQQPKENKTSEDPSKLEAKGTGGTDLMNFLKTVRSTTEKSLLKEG

The compound `CCC(NC(=O)c1ccc(Cl)cc1)[C@H]1[C@@H]2C[C@@H](N3C(=O)Cc4cc(F)ccc43)C[C@@H]21` (stereo partly drawn) [Compound 121, 4-chloro-N-(1-((1R,3s,5S,6r)-3-(5-fluoro-2-oxoindolin-1-yl)bicyclo[3.1.0]hexan-6-yl)propyl)benzamide] gave a pIC50 of more than 6.70. In the case of `CCC(NC(=O)c1ccc(Cl)cc1)[C@H]1[C@@H]2C[C@@H](NC(=O)c3cnccn3)C[C@@H]21` (stereo partly drawn) [Compound 152, N-((1R,3s,5S,6r)-6-(1-(4-chlorobenzamido)propyl)bicyclo[3.1.0]hexan-3-yl)pyrazine-2-carboxamide] it was more than 6.70; in that of `C[C@@H](NC(=O)c1ccc(C#N)cc1)[C@H]1[C@@H]2C[C@@H](c3ccnc4ccc(F)cc34)C[C@@H]21` [Compound 278, 4-cyano-N-((R)-1-((1R,3S,5S,6r)-3-(6-fluoroquinolin-4-yl)bicyclo[3.1.0]hexan-6-yl)ethyl)benzamide], more than 6.70.

Take `CCC(NC(=O)c1ccc(Cl)cc1)[C@H]1[C@@H]2C[C@@H](Nc3c(F)cc(F)cc3[N+](=O)[O-])C[C@@H]21` (stereo partly drawn) [Compound 264, 4-chloro-N-(1-((1R,3s,5S,6r)-3-((2,4-difluoro-6-nitrophenyl)amino)bicyclo[3.1.0]hexan-6-yl)propyl)benzamide]: the negative logarithm of the IC50 (pIC50) was more than 6.70. Under `O=C(NC[C@@H]1[C@H]2C[C@H](n3cnc4cc(F)c(F)cc43)C[C@@H]12)c1ccc(Cl)c(F)c1` [Compound 315, 4-chloro-N-(((1R,3s,5S,6r)-3-(5,6-difluoro-1H-benzo[d]imidazol-1-yl)bicyclo[3.1.0]hexan-6-yl)methyl)-3-fluorobenzamide] stands more than 6.70; under `CC(C(=O)Nc1ccc(Cl)c(F)c1)[C@H]1[C@@H]2C[C@@H](n3cnc4cc(F)c(F)cc43)C[C@@H]21` (stereo partly drawn) [Compound 345, N-(4-chloro-3-fluorophenyl)-2-((1R,3s,5S,6r)-3-(5,6-difluoro-1H-benzo[d]imidazol-1-yl)bicyclo[3.1.0]hexan-6-yl)propanamide], more than 6.70; under `C=Cc1cnn([C@@H]2C[C@@H]3[C@H](C2)[C@H]3[C@@H](CC)NC(=O)c2ccc(Cl)cc2)c1` [Compound 305, 4-chloro-N-((R)-1-((1R,3S,5S,6r)-3-(4-vinyl-1H-pyrazol-1-yl)bicyclo[3.1.0]hexan-6-yl)propyl)benzamide], more than 6.70. With `CCC(NC(=O)c1ccc(Cl)cc1)[C@H]1[C@@H]2C[C@@H](NC(=O)c3cccnn3)C[C@@H]21` (stereo partly drawn) [Compound 151, N-((1R,3s,5S,6r)-6-(1-(4-chlorobenzamido)propyl)bicyclo[3.1.0]hexan-3-yl)pyridazine-3-carboxamide], the pIC50 was more than 6.70. In the case of `CC(C(=O)Nc1ccc(Cl)cc1)[C@H]1[C@@H]2C[C@@H](Oc3cnnc4ccc(F)cc34)C[C@@H]21` (stereo partly drawn) [Compound 340, N-(4-chlorophenyl)-2-((1R,3s,5S,6r)-3-((6-fluorocinnolin-4-yl)oxy)bicyclo[3.1.0]hexan-6-yl)propanamide] it was more than 6.70; in that of `CC[C@@H](NC(=O)Nc1ccc(Cl)cc1)[C@H]1[C@@H]2C[C@@H](n3cnc4cc(F)c(F)cc43)C[C@@H]21` [Compound 344, 1-(4-chlorophenyl)-3-((R)-1-((1R,3S,5S,6r)-3-(5,6-difluoro-1H-benzo[d]imidazol-1-yl)bicyclo[3.1.0]hexan-6-yl)propyl)urea], more than 6.70. In the case of `CCC(NC(=O)c1ccc(Cl)cc1)[C@H]1[C@@H]2C[C@@H](n3cc(C(C)(C)O)nn3)C[C@@H]21` (stereo partly drawn) [Compound 141, 4-chloro-N-((R)-1-((1R,3S,5S,6r)-3-(4-(2-hydroxypropan-2-yl)-1H-1,2,3-triazol-1-yl)bicyclo[3.1.0]hexan-6-yl)propyl)benzamide] it was 5.70 to 6.70; in that of `CC[C@@H](NC(=O)N1CCC(F)(F)CC1)[C@H]1[C@@H]2C[C@@H](n3cnc4cc(F)c(F)cc43)C[C@@H]21` [Compound 355, N-((R)-1-((1R,3S,5S,6r)-3-(5,6-difluoro-1H-benzo[d]imidazol-1-yl)bicyclo[3.1.0]hexan-6-yl)propyl)-4,4-difluoropiperidine-1-carboxamide], more than 6.70; in that of `CCC(NC(=O)c1ccc(C#N)cc1)[C@H]1[C@@H]2C[C@@H](Oc3ncnc4ccc(F)cc34)C[C@@H]21` (stereo partly drawn) [Compound 66, 4-cyano-N-(1-((1R,3s,5S,6r)-3-((6-fluoroquinazolin-4-yl)oxy)bicyclo[3.1.0]hexan-6-yl)propyl)benzamide], more than 6.70. Under `CC[C@@H](NC(=O)c1ccc(C#N)cc1)[C@H]1[C@@H]2C[C@@H](n3c(C)nc4ccc(Cl)cc43)C[C@@H]21` [Compound 294, N-((R)-1-((1R,3S,5S,6r)-3-(6-chloro-2-methyl-1H-benzo[d]imidazol-1-yl)bicyclo[3.1.0]hexan-6-yl)propyl)-4-cyanobenzamide] stands more than 6.70; under `CCC(NC(=O)c1ccc2c(c1)OC(F)(F)O2)C1C2CC(Oc3ncnc4ccc(F)cc34)CC21` [Compound 69, 2,2-difluoro-N-(1-((1R,3s,5S,6r)-3-((6-fluoroquinazolin-4-yl)oxy)bicyclo[3.1.0]hexan-6-yl)propyl)benzo[d][1,3]dioxole-5-carboxamide], more than 6.70.

In the case of `CC[C@@H](NC(=O)c1ccc(Cl)cc1)[C@H]1[C@@H]2C[C@@H](n3ccc(C4CC4)n3)C[C@@H]21` [Compound 343, 4-chloro-N-((R)-1-((1R,3S,5S,6r)-3-(3-cyclopropyl-1H-pyrazol-1-yl)bicyclo[3.1.0]hexan-6-yl)propyl)benzamide], the negative-log IC50 (pIC50) is more than 6.70. For `CC(C(=O)Nc1ccc(Cl)cc1)[C@H]1[C@@H]2C[C@@H](n3cnc4cc(F)c(F)cc43)C[C@@H]21` (stereo partly drawn) [Compound 281, N-(4-chlorophenyl)-2-((1R,3s, 5S, 6r)-3-(5,6-difluoro-1H-benzo[d]imidazol-1-yl)bicyclo[3.1.0]hexan-6-yl)propanamide], the pIC50 is more than 6.70. As to `CCC(NC(=O)c1ccc(Cl)cc1)[C@H]1[C@@H]2C[C@@H](Oc3cccc4cccnc34)C[C@@H]21` (stereo partly drawn) [Compound 43, 4-chloro-N-(1-((1R,3s,5S,6r)-3-(quinolin-8-yloxy)bicyclo[3.1.0]hexan-6-yl)propyl)benzamide], the pIC50 is more than 6.70. In the case of `CC[C@@H](NC(=O)N1CCOCC1)[C@H]1[C@@H]2C[C@@H](n3cnc4cc(F)c(F)cc43)C[C@@H]21` [Compound 356, N-((R)-1-((1R,3S,5S,6r)-3-(5,6-difluoro-1H-benzo[d]imidazol-1-yl)bicyclo[3.1.0]hexan-6-yl)propyl)morpholine-4-carboxamide] it was 5.30 to 5.70; in that of `O=C(NC[C@@H]1[C@H]2C[C@H](n3cnc4cc(F)c(F)cc43)C[C@@H]12)c1cccc(F)c1` [Compound 320, N-(((1R,3s,5S,6r)-3-(5,6-difluoro-1H-benzo[d]imidazol-1-yl)bicyclo[3.1.0]hexan-6-yl)methyl)-3-fluorobenzamide], 5.70 to 6.70. In the case of `CCC(NC(=O)c1ccc(C#N)cc1)[C@H]1[C@@H]2C[C@@H](n3cnc4ccc(F)cc4c3=O)C[C@@H]21` (stereo partly drawn) [Compound 67, 4-cyano-N-(1-((1R,3s,5S,6r)-3-(6-fluoro-4-oxoquinazolin-3(4H)-yl)bicyclo[3.1.0]hexan-6-yl)propyl)benzamide] it was more than 6.70; in that of `CC[C@@H](NC(=O)c1ccc(Cl)cc1)[C@H]1[C@@H]2C[C@@H](n3cc(C(F)(F)F)cn3)C[C@@H]21` [Compound 332, 4-chloro-N-((R)-1-((1R,3S,5S,6r)-3-(4-(trifluoromethyl)-1H-pyrazol-1-yl)bicyclo[3.1.0]hexan-6-yl)propyl)benzamide], more than 6.70. Take `CC[C@@H](NC(=O)c1ccc(Cl)cc1)[C@H]1[C@@H]2C[C@@H](NC(=O)c3ncccc3F)C[C@@H]21` [Compound 327, N-((1R,3S,5S,6r)-6-((R)-1-(4-chlorobenzamido)propyl)bicyclo[3.1.0]hexan-3-yl)-3-fluoropicolinamide]: the pIC50 is more than 6.70. Consider `O=C(O)CC(NC(=O)c1ccc(Cl)cc1)[C@H]1[C@@H]2C[C@@H](Oc3ncnc4ccc(F)cc34)C[C@@H]21` (stereo partly drawn) [Compound 148, 3-(4-chlorobenzamido)-3-((1R,3s,5S,6r)-3-((6-fluoroquinazolin-4-yl)oxy)bicyclo[3.1.0]hexan-6-yl)propanoic acid], for which the pIC50 is less than 5.30. As to `CCC(NC(=O)c1ccc(Cl)cc1)[C@H]1[C@@H]2C[C@@H](Oc3ncccc3C)C[C@@H]21` (stereo partly drawn) [Compound 41, 4-chloro-N-(1-((1R,3s,5S,6r)-3-((3-methylpyridin-2-yl)oxy)bicyclo[3.1.0]hexan-6-yl)propyl)benzamide], the pIC50 is more than 6.70. Under `CC(NC(=O)c1ccc(Cl)cc1)[C@H]1[C@@H]2C[C@@H](Oc3ncnc4ccc(F)cc34)C[C@@H]21` (stereo partly drawn) [Compound 64, 4-chloro-N-(1-((1R,3s,5S,6r)-3-((6-fluoroquinazolin-4-yl)oxy)bicyclo[3.1.0]hexan-6-yl)ethyl)benzamide] stands more than 6.70. In the case of `CC[C@@H](NC(=O)c1ccc(C#N)cc1)[C@H]1[C@@H]2C[C@@H](n3c(C)nc4ccc(C#N)cc43)C[C@@H]21` [Compound 293, 4-cyano-N-((R)-1-((1R,3S,5S,6r)-3-(6-cyano-2-methyl-1H-benzo[d]imidazol-1-yl)bicyclo[3.1.0]hexan-6-yl)propyl)benzamide] it was 5.70 to 6.70; in that of `O=C(Cc1ccc(Cl)cc1)NC1[C@H]2C[C@H](Oc3ccnc4ccc(F)cc34)C[C@@H]12` (stereo partly drawn) [Compound 7, 2-(4-chlorophenyl)-N-((1R,3s,5S,6r)-3-((6-fluoroquinolin-4-yl)oxy)bicyclo[3.1.0]hexan-6-yl)acetamide], more than 6.70. In the case of `CCC(NC(=O)c1ccc(Cl)cc1)[C@H]1[C@@H]2C[C@@H](N3C(=O)C(F)(F)c4ccccc43)C[C@@H]21` (stereo partly drawn) [Compound 119, 4-chloro-N-(1-((1R,3s,5S,6r)-3-(3,3-difluoro-2-oxoindolin-1-yl)bicyclo[3.1.0]hexan-6-yl)propyl)benzamide] it was more than 6.70.

The record behind these values is patent US11173145B2, “Compounds useful as inhibitors of indoleamine 2,3-dioxygenase and/or tryptophan dioxygenase” (Board of Regents, The University of Texas System, priority 2017, dated 2021).
